Measurements taken from patent publication US11434242B2, “Dopamine-b-hydroxylase inhibitors” (BIAL-PORTELA & Cª, S.A., priority 2017, dated 2022).
Marks after values point to notes of the source that are not given here.

Molecular target: T1, Dopamine beta hydroxylase (Homo sapiens, UniProt P09172)
T1 construct: 125 μl of plasma; tissue Instituto Português do Sangue Transplantação; host or cells: human plasma from healthy donors
T1 sequence (P09172 40-617 limits assumed): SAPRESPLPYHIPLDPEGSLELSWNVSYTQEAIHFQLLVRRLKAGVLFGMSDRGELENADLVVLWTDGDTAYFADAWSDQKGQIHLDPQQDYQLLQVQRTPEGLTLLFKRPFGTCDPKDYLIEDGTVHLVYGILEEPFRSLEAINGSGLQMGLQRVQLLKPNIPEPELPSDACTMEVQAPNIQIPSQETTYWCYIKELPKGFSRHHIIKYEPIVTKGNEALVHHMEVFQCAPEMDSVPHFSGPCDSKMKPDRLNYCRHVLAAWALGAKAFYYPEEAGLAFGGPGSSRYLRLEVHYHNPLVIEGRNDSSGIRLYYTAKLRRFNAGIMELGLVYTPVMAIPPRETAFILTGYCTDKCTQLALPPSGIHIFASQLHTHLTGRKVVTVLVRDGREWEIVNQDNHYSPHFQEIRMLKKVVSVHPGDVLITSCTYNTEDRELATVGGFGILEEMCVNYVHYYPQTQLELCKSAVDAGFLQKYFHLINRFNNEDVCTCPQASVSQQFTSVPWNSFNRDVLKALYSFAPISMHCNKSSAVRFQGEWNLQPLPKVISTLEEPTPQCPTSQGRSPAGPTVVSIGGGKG
Assay: Dopamine beta hydroxylase activity in human plasma
Type: biochemical
Method in brief: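 Octopamine production from tyramine over 45 min at 37° C, measured photometrically at 330 nm after SCX extraction and periodate oxidation against an octopamine standard curve, indicates plasma DβH activity. Compounds tested at final 10, 100 and 1000 nM in human plasma, pH 5.0 cofactor buffer, 10 min preincubation; results as % of control.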

| SMILES | Plasma (0.01 μM), activity in % of control (inhibitor 0.01 μM) | Plasma (0.1 μM), activity in % of control (inhibitor 0.1 μM) | Plasma (1 μM), activity in % of control (inhibitor 1 μM) | Plasma (0.01 μM), activity in % of control, re-test (asterisked) (inhibitor 0.01 μM, re-tested under the same experimental conditions, asterisked data believed to be correct) | Plasma (0.1 μM), activity in % of control, re-test (asterisked) (inhibitor 0.1 μM, re-tested under the same experimental conditions, asterisked data believed to be correct) |
| --- | --- | --- | --- | --- | --- |
| Cn1c(CCC(=O)Nc2ccccn2)c2n(c1=S)C[C@H](c1c(F)ccc(Cl)c1F)C2 [Example 268, (S)-3-(6-(3-chloro-2,6-difluorophenyl)-2-methyl-3-thioxo-2,5,6,7-tetrahydro-3H-pyrrolo[1,2-c]imidazol-1-yl)-N-(pyridin-2-yl)propanamide] | 99.8 % of control | 57.7 % of control |  |  |  |
| Cn1c(CCC(=O)O)c2n(c1=S)C[C@@H](c1c(F)c(F)cc(F)c1F)C2 [Example 260, (R)-3-(2-methyl-6-(2,3,5,6-tetrafluorophenyl)-3-thioxo-2,5,6,7-tetrahydro-3H-pyrrolo[1,2-c]imidazol-1-yl)propanoic Acid] | 84.1 % of control | 26.5 % of control |  |  |  |
| CN1C[C@@H](NC(=O)Cc2c3n(c(=S)n2C)C[C@H](c2c(F)ccc(Br)c2F)C3)CC1=O [Example 449, 2-((S)-6-(3-bromo-2,6-difluorophenyl)-2-methyl-3-thioxo-2,5,6,7-tetrahydro-3H-pyrrolo[1,2-c]imidazol-1-yl)-N—((S)-1-methyl-5-oxopyrrolidin-3-yl)acetamide] | 27.8 % of control | 2.3 % of control |  |  |  |
| CS(=O)(=O)C1CCN(CCc2[nH]c(=S)n3c2C[C@H](c2c(F)ccc(Br)c2F)C3)CC1 [Example 179, (R)-6-(3-bromo-2,6-difluorophenyl)-1-(2-(4-(methylsulfonyl)piperidin-1-yl)ethyl)-2,5,6,7-tetrahydro-3H-pyrrolo[1,2-c]imidazole-3-thione] | 93.5 % of control | 48.8 % of control |  |  |  |
| Cn1c(CC(=O)NC2CCCCC2)c2n(c1=S)C[C@@]1(c3cc(Cl)ccc3F)C[C@@H]21 [Example 302, 2-((5aS,6aR)-5a-(5-chloro-2-fluorophenyl)-2-methyl-3-thioxo-2,3,5,5a,6,6a-hexahydrocyclopropa[3,4]pyrrolo[1,2-c]imidazol-1-yl)-N-cyclohexylacetamide] | 62.7 % of control | 7.7 % of control |  |  |  |
| CC(C)NC(=O)Cc1c2n(c(=S)n1C)C[C@@]1(c3cc(Br)ccc3F)C[C@@H]21 [Example 284, 2-((5aS,6aR)-5a-(5-bromo-2-fluorophenyl)-2-methyl-3-thioxo-2,3,5,5a,6,6a-hexahydrocyclopropa[3,4]pyrrolo[1,2-c]imidazol-1-yl)-N-isopropylacetamide] | 84.8 % of control | 41.9 % of control |  |  |  |
| Cn1c(CC(=O)N2CCOCC2)c2n(c1=S)C[C@H](c1cc(F)cc(F)c1)C2 [Example 419, (S)-2-(6-(3,5-difluorophenyl)-2-methyl-3-thioxo-2,5,6,7-tetrahydro-3H-pyrrolo[1,2-c]imidazol-1-yl)-1-morpholinoethan-1-one] | 92.5 % of control | 61.0 % of control |  |  |  |
| Cl.Cn1c(CCNC2CCCC2)c2n(c1=S)C[C@@]1(c3cc(Br)ccc3F)C[C@@H]21 [Example 330, (5aS,6aR)-5a-(5-bromo-2-fluorophenyl)-1-(2-(cyclopentylamino)ethyl)-2-methyl-5,5a,6,6a-tetrahydrocyclopropa[3,4]pyrrolo[1,2-c]imidazole-3(2H)-thione Hydrochloride] | 71.7 % of control | 32.5 % of control |  |  |  |
| Cl.O=C(Cc1[nH]c(=S)n2c1C[C@@H](c1c(F)ccc(Cl)c1F)C2)NCc1cccnc1 [Example 109, (S)-2-(6-(3-chloro-2,6-difluorophenyl)-3-thioxo-2,5,6,7-tetrahydro-3H-pyrrolo[1,2-c]imidazol-1-yl)-N-(pyridin-3-ylmethyl)acetamide Hydrochloride] |  | 5.4 % of control | 1.5 % of control |  |  |
| Cn1c(CC(=O)N[C@@H]2CCOC2)c2n(c1=S)C[C@@]1(c3c(F)ccc(Cl)c3F)C[C@@H]21 [Example 274, 2-((5aS,6aR)-5a-(3-chloro-2,6-difluorophenyl)-2-methyl-3-thioxo-2,3,5,5a,6,6a-hexahydrocyclopropa[3,4]pyrrolo[1,2-c]imidazol-1-yl)-N—((R)-tetrahydrofuran-3-yl)acetamide] | 55.9 % of control | 11.2 % of control |  |  |  |
| Cn1c(CC(=O)N[C@@H]2CCCOC2)c2n(c1=S)C[C@H](c1c(F)ccc(Br)c1F)C2 [Example 382, 2-((S)-6-(3-bromo-2,6-difluorophenyl)-2-methyl-3-thioxo-2,5,6,7-tetrahydro-3H-pyrrolo[1,2-c]imidazol-1-yl)-N—((R)-tetrahydro-2H-pyran-3-yl)acetamide] | 37.6 % of control | 6.0 % of control |  |  |  |
| Cn1c(CC(=O)N2CCOCC2)c2n(c1=S)C[C@H](c1c(F)ccc(Br)c1F)C2 [Example 233, (S)-2-(6-(3-bromo-2,6-difluorophenyl)-2-methyl-3-thioxo-2,5,6,7-tetrahydro-3H-pyrrolo[1,2-c]imidazol-1-yl)-1-morpholinoethan-1-one] | 83.8 % of control | 66.8 % of control |  | 59.3* % of control | 9.7* % of control |
| CS(=O)(=O)C1CCN(C(=O)Cc2[nH]c(=S)n3c2C[C@@H](c2c(F)ccc(Br)c2F)C3)C1 (stereo partly drawn) [Example 164, 2-((S)-6-(3-bromo-2,6-difluorophenyl)-3-thioxo-2,5,6,7-tetrahydro-3H-pyrrolo[1,2-c]imidazol-1-yl)-1-(3-(methylsulfonyl)pyrrolidin-1-yl)ethan-1-one] | 65.8 % of control | 17.1 % of control |  |  |  |
| F.Fc1ccc(Cl)cc1[C@]12C[C@H]1c1c(CCNCc3ccccc3)[nH]c(=S)n1C2 [Example 189, (5aS,6aR)-1-(2-(benzylamino)ethyl)-5a-(5-chloro-2-fluorophenyl)-5,5a,6,6a-tetrahydrocyclopropa[3,4]pyrrolo[1,2-c]imidazole-3(2H)-thione hydrofluoride] | 87.4 % of control | 23.2 % of control |  |  |  |
| CN(CCO)C(=O)Cc1c2n(c(=S)n1C)C[C@@H](c1c(F)ccc(F)c1F)C2 [Example 293, (R)—N-(2-hydroxyethyl)-N-methyl-2-(2-methyl-3-thioxo-6-(2,3,6-trifluorophenyl)-2,5,6,7-tetrahydro-3H-pyrrolo[1,2-c]imidazol-1-yl)acetamide] | 104.8 % of control | 86.0 % of control |  |  |  |
| Cn1c(CC(=O)N2CCOCC2)c2n(c1=S)C[C@H](c1c(F)ccc(Cl)c1F)C2 [Example 329, (S)-2-(6-(3-chloro-2,6-difluorophenyl)-2-methyl-3-thioxo-2,5,6,7-tetrahydro-3H-pyrrolo[1,2-c]imidazol-1-yl)-1-morpholinoethan-1-one] | 41.7 % of control | 16.1 % of control |  |  |  |
